Assays:
[1] = Feeding of calcium versus sodium KIC to ruminants; assay type: in vivo, ruminants such as cattle and sheep
[2] = Water solubility of KIC salts; assay type: physicochemical; settings: vs ammonium and alkali metal salts
[3] = system: plasma cortisol; experiment: Plasma cortisol in pigs after test meals; assay type: in vivo
Protocol: To determine if KIC could acutely alter cortisol concentrations, young pigs were fed meals supplemented with leucine or KIC and plasma cortisol was measured.
In experiment 1, sixteen female pigs weighing 20-30 kg were used. Seven days before study, catheters were surgically placed in the right atria for blood sampling. Animals were housed in individual cages during the recovery period and had free access to water. Preceding the experiment, animals were fed twice daily a basal diet (2% of body weight per feeding). The basal diet consisted of a corn-soybean mix, adequate in all minerals and vitamins and containing approximately 14% crude protein. Test meals were formulated by additions to a basal diet. Five animals received the basal diet (control); five animals received the leucine meal, which had 2% leucine added to the basal diet; and six animals received the KIC diet, which had 2% KIC (sodium salt equivalent to 1.7% free acid) added to the basel diet. Studies were begun between 0800 and 0900 h after a 24-hr fast. Basal blood samples were taken at -20, -10 and -5 min. Animals were then offered 100 g of their respective test meal (time 0). Pigs were included in the study only if they consumed the entire meal in the first 20 min. […] Plasma was separated, Trasylol (FBA Pharmaceuticals, New York, NY) added (50 ul/ml), and plasma stored at -70 C. until analyzed.
(§1) Cortisol was measured by coated tube kits (Gammacoat, Travenol-Genetech Diagnostics, Cambridge, MA). Leucine and KIC were measured by high pressure liquid chromatography. Crystalline leucine was obtained from Sigma Chemical (St. Louis, MO) and KIC-sodium was obtained from SOBAC (Paris, France). Statistical analysis of the individual pig responses was conducted on mean plasma concentrations before the meal (-20 to 0 min) and after the meal (120 to 240 min). When the overall treatment F-value was significant, differences between individual treatments were determined using the pooled SEM and a T-test.

[4] = set-up: species or system pigs; settings: pig, in vivo
Text: In experiment 1, sixteen female pigs weighing 20-30 kg were used. Seven days before study, catheters were surgically placed in the right atria for blood sampling. Animals were housed in individual cages during the recovery period and had free access to water. Preceding the experiment, animals were fed twice daily a basal diet (2% of body weight per feeding). The basal diet consisted of a corn-soybean mix, adequate in all minerals and vitamins and containing approximately 14% crude protein. Test meals were formulated by additions to a basal diet. Five animals received the basal diet (control); five animals received the leucine meal, which had 2% leucine added to the basal diet; and six animals received the KIC diet, which had 2% KIC (sodium salt equivalent to 1.7% free acid) added to the basel diet. Studies were begun between 0800 and 0900 h after a 24-hr fast. Basal blood samples were taken at -20, -10 and -5 min. Animals were then offered 100 g of their respective test meal (time 0). Pigs were included in the study only if they consumed the entire meal in the first 20 min. Blood was sampled every 30 min from 120 to 240 min. Plasma was separated, Trasylol (FBA Pharmaceuticals, New York, NY) added (50 ul/ml), and plasma stored at -70 C. until analyzed.
as §1

Compound	effectiveness relative to sodium salt [1]	water solubility [2]	Plasma cortisol, Change ([3]; 2% in meal, control -0.09) [µg/dL]	Plasma cortisol, Post ([3]; 2% in meal, pre: leucine 2.8, KIC 4.7, pooled SEM 0.49) [µg/dL]	change in plasma cortisol ([3]; 2% leucine in meal, nonsignificant) [%]	Plasma KIC, Change [4] [µM]	Plasma leucine, Change [4] [µM]	increase of plasma leucine concentration [4] [fold]	Plasma KIC, Post ([4]; 240 min) [µM]	Plasma leucine, Post ([4]; 240 min) [µM]
CC(C)CC(=O)C(=O)O [Ca-KIC]	generally comparably effective with the sodium salt	less water-soluble	–	–	–	–	–	–	–	–
CC(C)C[C@H](N)C(=O)O [leucine, reference compound]	–	–	-0.48	2.4	-14	66	518	4	90	664

Source: patent US4835185A, “Immunomodulator for improving commercial performance of domestic animals” (Iowa State University Research Foundation, Inc., priority 1987, dated 1989)
